Measured values reported in US20070189965A1, “Copper-complex isonitrile positron emission tomography (pet) imaging agent and method” (priority 2004, published 2007).

Experiments:
[1] = Stability of I-131 Hippuran vials on storage: percent remaining bound; type: physicochemical
Protocol: As another example, I-131 Hippuran was prepared. The I-131 Hippuran was prepared as follows: 9 vials were prepared of I-131 Hippuran in solution with a radioactive concentration of MIBG of 1 mCi per vial. Each vial had 4 cc. The I-131 in seven of those vials was then stabilized and lyophilized according to the process described in this invention. One vial was frozen and maintained at a temperature of −10 degrees, and another vial was maintained room temperature. Room temperature was selected because Hippuran is thought to be stable at room temperature even in conjunction with a radioisotope. […]

[2] = Stability of I-131 MIBG vials on storage: percent of iodine remaining bound; type: physicochemical
Protocol: In order to establish the advantages of the novel process and resulting composition, a series of tests were run utilizing meta iodo benzyl guanidine (MIBG) in which the radionuclide I-131 was the iodine in the MlBG.
The MIBG was prepared as follows: eight vials were prepared of MIBG in solution with a radioactive concentration of MIBG of 1 mCi per vial. The MIBG in six of those vials were then stabilized and lyophilized according to the process described in this invention. One vial was frozen and maintained at a temperature of −10 degrees, and another vial was simply refrigerated at approximately 5 degrees.
Six vials were prepared according to the process in this invention in order to enable several to be reconstituted from the lyophilized state and their activity tallied.
The radioactive concentration of MIBG per vial was 1 mCi per vial.
One each of the vials was reconstituted after 24, 48, 72 and 168 hours respectively.

[3] = Lyophilized and stabilized per invention, stored at room temp., 0 hours, 1 mCi per vial

O=C(O)CNC(=O)c1ccccc1[131I] [I-131 Hippuran]
percent of Hippuran remaining bound to the 1-123 ([1]; Frozen −10°, 0 hours): 98% | percent of Hippuran remaining bound to the 1-123 ([1]; Frozen −10°, 24 hrs): 97.8% | percent of Hippuran remaining bound to the 1-123 ([1]; Frozen −10°, 48 hrs): 97% | percent of Hippuran remaining bound to the 1-123 ([1]; Frozen −10°, 72 hrs): 94% | percent of Hippuran remaining bound to the 1-123 ([1]; Frozen −10°, 96 hrs): 92.5% | percent of Hippuran remaining bound to the 1-123 ([1]; Frozen −10°, 120 hrs): 91 | percent of Hippuran remaining bound to the 1-123 [1, 3]: 98% | percent of Hippuran remaining bound to the 1-123 ([1]; Lyophilized and stabilized per invention, stored at room temp., 24 hrs): 98.4% | percent of Hippuran remaining bound to the 1-123 ([1]; Lyophilized and stabilized per invention, stored at room temp., 48 hrs): 98.6% | percent of Hippuran remaining bound to the 1-123 ([1]; Lyophilized and stabilized per invention, stored at room temp., 72 hrs): 98% | percent of Hippuran remaining bound to the 1-123 ([1]; Lyophilized and stabilized per invention, stored at room temp., 96 hrs): 98.4% | percent of Hippuran remaining bound to the 1-123 ([1]; Lyophilized and stabilized per invention, stored at room temp., 120 hrs): 98.5% | percent of Hippuran remaining bound to the 1-123 ([1]; Room Temp. (solution), 0 hours): 98% | percent of Hippuran remaining bound to the 1-123 ([1]; Room Temp. (solution), 24 hrs): 96% | percent of Hippuran remaining bound to the 1-123 ([1]; Room Temp. (solution), 48 hrs): 95% | percent of Hippuran remaining bound to the 1-123 ([1]; Room Temp. (solution), 72 hrs): 94.5% | percent of Hippuran remaining bound to the 1-123 ([1]; Room Temp. (solution), 96 hrs): 92% | percent of Hippuran remaining bound to the 1-123 ([1]; Room Temp. (solution), 120 hrs): 90%

N=C(N)NCc1cccc([131I])c1 [MIBG, meta iodo benzyl guanidine]
percent of iodine remaining bound to the MIBG ([2]; Frozen −10°, 0 hours): 96.3% | percent of iodine remaining bound to the MIBG ([2]; Frozen −10°, 24 hours): 94% | percent of iodine remaining bound to the MIBG ([2]; Frozen −10°, 48 hours): 91% | percent of iodine remaining bound to the MIBG ([2]; Frozen −10°, 72 hours): 84% | percent of iodine remaining bound to the MIBG ([2]; Frozen −10°, 168 hours (1 wk.)): 72% | percent of iodine remaining bound to the MIBG [2, 3]: 96.3% | percent of iodine remaining bound to the MIBG ([2]; Lyophilized and stabilized per invention, stored at room temp., 24 hours): 97% | percent of iodine remaining bound to the MIBG ([2]; Lyophilized and stabilized per invention, stored at room temp., 48 hours): 96.6% | percent of iodine remaining bound to the MIBG ([2]; Lyophilized and stabilized per invention, stored at room temp., 72 hours): 96.2% | percent of iodine remaining bound to the MIBG ([2]; Lyophilized and stabilized per invention, stored at room temp., 168 hours (1 wk.)): 95.9% | percent of iodine remaining bound to the MIBG ([2]; Refrigerated ˜+5°, 0 hours): 96.3% | percent of iodine remaining bound to the MIBG ([2]; Refrigerated ˜+5°, 24 hours): 92% | percent of iodine remaining bound to the MIBG ([2]; Refrigerated ˜+5°, 48 hours): 85% | percent of iodine remaining bound to the MIBG ([2]; Refrigerated ˜+5°, 72 hours): 77% | percent of iodine remaining bound to the MIBG ([2]; Refrigerated ˜+5°, 168 hours (1 wk.)): 55%
